# Laboratory results published in paper PMC11578313, “Miniaturized Modular Click Chemistry‐enabled Rapid Discovery of Unique SARS‐CoV‐2 M^pro Inhibitors With Robust Potency and Drug‐like Profile” (Advanced Science, 2024).
# “And” between values parts separate entries of the source, which are not always exact repeats. Equal entries are not always repeated.
# Assay: In vivo pharmacokinetic study in male ICR mice (compound alone)
# Conditions: for Plasma concentration (Calculated Concentration): mouse plasma
# Experimental: The pharmacokinetics profile of the newly developed antiviral compound C5N17B was subsequently evaluated in male ICR mice that were free from specific pathogens, aiming to assess its potential for therapeutic application in vivo.
# A total of six male ICR mice were randomly assigned to two groups. One group received the test drug intravenously at a dosage of 2 mg kg^−1, while the other group received oral administration at a dosage of 10 mg kg^−1. To prepare solutions of C5N17B, 2.39 mg compound was dissolved in a mixture of 0.119 mL DMSO, 0.238 mL polyoxyl 15 hydroxystearate (Solutol), and 2.027 mL normal saline. For the intravenous group, blood samples were collected from the sinus jugular into heparinized centrifugation tubes at various time points after dosing: 5, 15, 30 min, 1, 2, 4, 6, 8, and 24 h. As for the oral administration group, blood samples were collected at similar time points (0.05 mL of blood each time). The collected blood samples were then centrifuged at a speed of 4000 rpm for 10 min to separate plasma, which was subsequently stored at −20 °C until further LC‐MS analysis to determine the concentration of C5N17B. Briefly, the analysis involved adding 20 µL of plasma, sample calibration standard, quality control, and dilution quality control, and blank samples into respective wells on a 96‐well plate. Then each sample was quenched with 200 µL of internal standard (the blank sample was quenched with 200 µL of ACN: MeOH = 1:1), followed by vortex‐mixed for 5 min, and centrifuged for 0.5 min at 4000 rpm, 4 °C. Next, a 100 µL portion of supernatant was transferred to another clean 96‐well plate and diluted with 100 µL of water, vortex‐mixed for 5 min and centrifuged for 10 min at 4000 rpm, 4 °C, then the sample was injected for LC‐MS/MS analysis. All samples were quantified using an LC‐MS/MS‐AR Triple Quad 5500+ (SCIEX, USA) and the ExionLC liquid phase system. The mobile phase was 0.1% formic acid‐water/ACN with gradient elute at a flow rate of 0.8 mL mi^−1n (total time 2.20 min), and the detection wavelength was 225 nm. All blood samples were centrifuged using an Eppendorf 5424R centrifuge and quantified using an LC‐MS/MS‐AR Triple Quad 5500+ (SCIEX, USA). The pharmacokinetic parameters were calculated by WinNolin 8.2 software.
# [1] = IV 2 mg/kg, individual mice 1#-3#, 2 mg/kg
# [2] = IV 2 mg/kg, individual mice 1-3, 2 mg/kg
# [3] = PO 10 mg/kg, individual mice 4#-6#, 10 mg/kg
# [4] = PO 10 mg/kg, individual mice 4-6, 10 mg/kg
compound,measurement,setting,value
Cc1cncc(C(=O)N2C[C@H]3CC[C@@H](C2)N3[C@H](c2cccc(F)c2)c2cn(CCc3ccsc3)nn2)c1 [Compound C5N17B],Plasma concentration (Calculated Concentration),"IV 2 mg/kg, 5 min (5 min), individual mice 1#-3#, 2 mg/kg",185 ng/mL and 233 ng/mL
same,Plasma concentration (Calculated Concentration),"IV 2 mg/kg, 0.5 h (30 min), individual mice 1#-3#, 2 mg/kg",10.2 ng/mL and 16.1 ng/mL
same,plasma concentration,"IV 2 mg/kg, 1 h, individual mice",BQL
same,Plasma concentration (Calculated Concentration),"IV 2 mg/kg, 1 h, individual mice 1#-3#, 2 mg/kg",BQL (3×) and No Peak
same,plasma concentration,"IV 2 mg/kg, 2 h, individual mice",BQL
same,Plasma concentration (Calculated Concentration),"IV 2 mg/kg, 2 h, individual mice 1#-3#, 2 mg/kg",BQL (3×) and No Peak
same,plasma concentration,"IV 2 mg/kg, 4 h, individual mice",BQL
same,Plasma concentration (Calculated Concentration),"IV 2 mg/kg, 4 h, individual mice 1#-3#, 2 mg/kg",BQL (3×) and No Peak
same,plasma concentration,"IV 2 mg/kg, 6 h, individual mice",BQL
same,Plasma concentration (Calculated Concentration),"IV 2 mg/kg, 6 h, individual mice 1#-3#, 2 mg/kg",BQL (3×) and No Peak
same,plasma concentration,"IV 2 mg/kg, 8 h, individual mice",BQL
same,Plasma concentration (Calculated Concentration),"IV 2 mg/kg, 8 h, individual mice 1#-3#, 2 mg/kg",BQL (3×) and No Peak
same,plasma concentration,"IV 2 mg/kg, 24 h, individual mice",BQL
same,Plasma concentration (Calculated Concentration),"IV 2 mg/kg, 24 h, individual mice 1#-3#, 2 mg/kg",BQL (3×) and No Peak
same,AUC0-∞,[1],51.4 ng·h/mL and 65.2 ng·h/mL
same,AUC(0-t),[1],49.9 ng·h/mL and 62.6 ng·h/mL
same,C0,[1],342 ng/mL and 528 ng/mL
same,Cl,[1],648.77 mL/min/kg and 511.58 mL/min/kg
same,Cmax,[1],185 ng/mL and 233 ng/mL
same,MRT0-t,[1],6.48 min and 5.56 min
same,MRT0-∞,[1],7.38 min and 6.9 min
same,T1/2,[1],6 min and 6.66 min
same,Vz,[1],5.616 L/kg and 4.924 L/kg
same,Tlast,"IV 2 mg/kg, individual mice 1-3",0.5 h
same,AUCINF_obs,[2],51.379 ng·h/mL and 65.1568 ng·h/mL
same,AUCINF_pred,[2],51.3513 ng·h/mL and 64.7977 ng·h/mL
same,AUC_%Back_Ext_obs,[2],49.436% and 42.7448% and 48.6559%
same,AUC_%Back_Ext_pred,[2],49.6744% and 42.7678% and 48.9255%
same,AUC_%Extrap_obs,[2],3.513% and 2.864% and 3.964%
same,AUC_%Extrap_pred,[2],3.048% and 2.812% and 3.432%
same,AUCall,[2],49.9075 ng·h/mL and 62.5739 ng·h/mL
same,AUClast,[2],49.9075 ng·h/mL and 62.5739 ng·h/mL
same,AUMCINF_obs,[2],8.9367 h*h*ng/mL and 6.325 h*h*ng/mL and 7.498 h*h*ng/mL
same,AUMCINF_pred,[2],8.682 h*h*ng/mL and 6.307 h*h*ng/mL and 7.2606 h*h*ng/mL
same,AUMC_%Extrap_obs,[2],20.8781% and 14.9894% and 22.7511%
same,AUMC_%Extrap_pred,[2],18.5552% and 14.7494% and 20.228%
same,AUMClast,[2],7.071 h*h*ng/mL and 5.377 h*h*ng/mL and 5.792 h*h*ng/mL
same,C0,[2],342.295 ng/mL and 528.167 ng/mL
same,Cl_obs,[2],648.773 mL/min/kg and 511.587 mL/min/kg
same,Cl_pred,[2],412.98 mL/min/kg and 649.123 mL/min/kg and 514.422 mL/min/kg
same,Clast,[2],10.2 ng/mL and 16.1 ng/mL
same,Clast_pred,[2],15.8864 ng/mL and 10.0084 ng/mL and 13.8618 ng/mL
same,Cmax,[2],185 ng/mL and 233 ng/mL
same,Cmax_D,[2],146 kg·ng/mL/mg and 92.5 kg·ng/mL/mg and 116.5 kg·ng/mL/mg
same,HL_Lambda_z,[2],0.1073 h and 0.09999 h and 0.1112 h
same,Lambda_z,[2],6.932 h⁻¹ and 6.233 h⁻¹
same,MRTINF_obs,[2],7.386 min and 6.906 min
same,MRTINF_pred,[2],7.368 min and 6.72 min
same,MRTlast,[2],6.462 min and 5.554 min
same,Vss_obs,[2],2.71724 L/kg and 4.7917 L/kg and 3.53216 L/kg
same,Vss_pred,[2],2.66526 L/kg and 4.78335 L/kg and 3.45846 L/kg
same,Vz_obs,[2],3.81856 L/kg and 5.61561 L/kg and 4.92437 L/kg
same,Vz_pred,[2],3.83697 L/kg and 5.61863 L/kg and 4.95166 L/kg
same,"C0, Mean","IV 2 mg/kg, mean of mice 1#-3#",514 ng/mL
same,Plasma concentration (Calculated Concentration),"PO 10 mg/kg (10MPK), 5 min (5 min), individual mice 4#-6#",23.7 ng/mL and 30.0 ng/mL and 68.2 ng/mL and 30 ng/mL
same,Plasma concentration (Calculated Concentration),"PO 10 mg/kg (10MPK), 15 min, individual mice 4-6",15.3 ng/mL and 19.3 ng/mL
same,Plasma concentration (Calculated Concentration),"PO 10 mg/kg (10MPK), 30 min, individual mice 4-6",8.4 ng/mL and 4.44 ng/mL and 12 ng/mL
same,Plasma concentration (Calculated Concentration),"PO 10 mg/kg (10MPK), 1 hr, individual mice 4-6",6.32 ng/mL and 10.4 ng/mL and 4.89 ng/mL
same,"Plasma concentration (Calculated Concentration), re-analysis","PO 10 mg/kg (10MPK), 1 hr, samples marked ""re"", individual mice",5.19 ng/mL
same,Plasma concentration (Calculated Concentration),"PO 10 mg/kg (10MPK), 2 hr, individual mice 4-6",6.1 ng/mL and 8.71 ng/mL and 16.7 ng/mL
same,Plasma concentration (Calculated Concentration),"PO 10 mg/kg (10MPK), 4 hr, individual mice 4-6",4.35 ng/mL and 7.74 ng/mL
same,Plasma concentration (Calculated Concentration),"PO 10 mg/kg (10MPK), 6 hr, individual mice 4-6",No Peak
same,Plasma concentration (Calculated Concentration),"PO 10 mg/kg (10MPK), 8 hr, individual mice 4-6",No Peak
same,Plasma concentration (Calculated Concentration),"PO 10 mg/kg (10MPK), 24 hr, individual mice 4-6",No Peak
same,T1/2,"PO 10 mg/kg (10MPK), individual mice 4#-6#",208 min and 142 min and 290 min
same,plasma concentration,"PO 10 mg/kg, 0.5 h, individual mice 4#-6#, 10 mg/kg",8.4 ng/mL and 12 ng/mL
same,plasma concentration,"PO 10 mg/kg, 2 h, individual mice 4#-6#, 10 mg/kg",6.1 ng/mL
same,plasma concentration,"PO 10 mg/kg, 6 h, individual mice 4#-6#, 10 mg/kg",BQL
same,plasma concentration,"PO 10 mg/kg, 8 h, individual mice 4#-6#",BQL
same,plasma concentration,"PO 10 mg/kg, 24 h, individual mice 4#-6#",BQL
same,AUC0-∞,[3],54.0 ng·h/mL and 102 ng·h/mL
same,AUC(0-t),[3],45.5 ng·h/mL and 47.9 ng·h/mL
same,Cmax,[3],30.0 ng/mL and 68.2 ng/mL and 23.7 ng/mL
same,F,[3],14.30% and 15.08%
same,MRT0-t,[3],114 min and 110 min
same,MRT0-∞,[3],314 min and 185 min and 401 min
same,Tlag,"PO 10 mg/kg, individual mice 4-6",0 h
same,Cmax,"PO 10 mg/kg, individual mice 4-6, full-precision output, 10 mg/kg",30 ng/mL and 68.2 ng/mL and 23.7 ng/mL
same,AUCINF_obs,[4],54.0464 ng·h/mL and 102.004 ng·h/mL
same,AUCINF_pred,[4],53.9915 ng·h/mL and 94.7713 ng·h/mL
same,AUC_%Extrap_obs,[4],48.9815% and 15.8821% and 53.0006%
same,AUC_%Extrap_pred,[4],44.7444% and 15.7964% and 49.4138%
same,AUCall,[4],45.4628 ng·h/mL and 47.9412 ng·h/mL
same,AUClast,[4],45.4628 ng·h/mL and 47.9412 ng·h/mL
same,AUMCINF_obs,[4],311.492 h*h*ng/mL and 166.93 h*h*ng/mL and 682.098 h*h*ng/mL
same,AUMCINF_pred,[4],270.44 h*h*ng/mL and 166.412 h*h*ng/mL and 602.65 h*h*ng/mL
same,AUMC_%Extrap_obs,[4],84.1842% and 48.3677% and 87.065%
same,AUMC_%Extrap_pred,[4],81.7834% and 48.2072% and 85.3597%
same,AUMClast,[4],49.2649 h*h*ng/mL and 86.1896 h*h*ng/mL and 88.2296 h*h*ng/mL
same,Cl_F_obs,[4],3083.77 mL/min/kg and 1633.93 mL/min/kg
same,Cl_F_pred,[4],3030.33 mL/min/kg and 3086.92 mL/min/kg and 1758.62 mL/min/kg
same,Clast,[4],5.85 ng/mL and 2.52 ng/mL and 7.74 ng/mL
same,Clast_pred,[4],4.934 ng/mL and 2.504 ng/mL and 6.705 ng/mL
same,Cmax_D,[4],3 kg·ng/mL/mg and 6.82 kg·ng/mL/mg and 2.37 kg·ng/mL/mg
same,HL_Lambda_z,[4],3.457 h and 2.361 h and 4.842 h
same,Lambda_z,[4],0.2005 h⁻¹ and 0.2936 h⁻¹ and 0.1432 h⁻¹
same,MRTINF_obs,[4],313.7 min and 185.3 min and 401.2 min
